According to patent US10039747B2, “Tetrahydrocyclopentapyrrole derivatives and a method for preparing the same” (Daewoong Pharmaceutical Co., Ltd., priority 2013, dated 2018):

Target: T1, H+/K+-ATPase (Sus scrofa, UniProt P19156)
T1 construct: reaction buffer solution (60 mmol/l Tris-HCl buffer solution, pH 7.4) containing hog gastric vesicle; from tissue; host or cells: hog stomach (gastric vesicles, by centrifugation after Rabon et al. 1988)
Experiment: Inhibition of proton pump (H+/K+-ATPase) activity in hog gastric vesicles
Format: biochemical
Details: K+ specific H+/K+-ATPase activity, pH 7.4, 37° C. for 40 minutes, malachite green
Description: 1) Preparation of Gastric Vesicles
Gastric vesicles were prepared from hog stomach by centrifugation (Edd C. Rabon et al., Preparation of Gastric H^+,K^+-ATPase, Methods in enzymology, vol. 157 Academic Press Inc., (1988), pp. 649-654). The protein contents of the prepared gastric vesicles were quantified with a Bicinchoninic Acid (BCA) kit.
2) Measurement of Effect of Inhibiting Proton Pump (H^+/K^+-ATPase) Activity
The effect of inhibiting proton pump activity by the compound of the present invention was measured in a 96-well plate. In this experiment, K^+ specific H^+/K^+-ATPase activity was calculated based on the difference between H^+/K^+-ATPase activity in the presence of K^+ ions and H^+/K^+-ATPase activity in the absence of K^+ ions. In the 96-well plate, to negative and positive control groups, 0.5% dimethylsulfoxide (DMSO) in buffer was added, and to the test groups, the compound of the present invention was added. All the analyses were conducted at room temperature with the reaction volume of 100 μl. To a reaction buffer solution (60 mmol/l Tris-HCl buffer solution, pH 7.4) containing hog gastric vesicle, DMSO and each concentration of compound were added, and then, 10 μl of a 10 mmol/l adenosine triphosphate tris buffer solution (60 mmol/l Tris-HCl buffer solution, pH 7.4) was added to initiate an enzyme reaction. The enzyme reaction was conducted at 37° C. for 40 minutes, 50 μl of a malachite green solution (0.12% malachite green solution, 5.8% ammonium molybdate and 11% tween 20 were mixed at a ratio of 100:67:2 in 6.2 N sulfuric acid) was added to stop the reaction, and 50 μl of 15.1% sodium citrate was added. During the reaction, the amount of monophosphate (Pi) was measured at 570 nm using micro plate reader (FLUOstar Omega, BMG Company). Inhibition rate (%) was measured from the activity values of the control groups and the activity values of various concentrations of the test compound, and IC50 of the test compound was calculated from each % inhibition value of the compound using Logistic 4-parameter function of Sigmaplot 8.0 program.

T1 sequence (P19156 2-1034 limits assumed): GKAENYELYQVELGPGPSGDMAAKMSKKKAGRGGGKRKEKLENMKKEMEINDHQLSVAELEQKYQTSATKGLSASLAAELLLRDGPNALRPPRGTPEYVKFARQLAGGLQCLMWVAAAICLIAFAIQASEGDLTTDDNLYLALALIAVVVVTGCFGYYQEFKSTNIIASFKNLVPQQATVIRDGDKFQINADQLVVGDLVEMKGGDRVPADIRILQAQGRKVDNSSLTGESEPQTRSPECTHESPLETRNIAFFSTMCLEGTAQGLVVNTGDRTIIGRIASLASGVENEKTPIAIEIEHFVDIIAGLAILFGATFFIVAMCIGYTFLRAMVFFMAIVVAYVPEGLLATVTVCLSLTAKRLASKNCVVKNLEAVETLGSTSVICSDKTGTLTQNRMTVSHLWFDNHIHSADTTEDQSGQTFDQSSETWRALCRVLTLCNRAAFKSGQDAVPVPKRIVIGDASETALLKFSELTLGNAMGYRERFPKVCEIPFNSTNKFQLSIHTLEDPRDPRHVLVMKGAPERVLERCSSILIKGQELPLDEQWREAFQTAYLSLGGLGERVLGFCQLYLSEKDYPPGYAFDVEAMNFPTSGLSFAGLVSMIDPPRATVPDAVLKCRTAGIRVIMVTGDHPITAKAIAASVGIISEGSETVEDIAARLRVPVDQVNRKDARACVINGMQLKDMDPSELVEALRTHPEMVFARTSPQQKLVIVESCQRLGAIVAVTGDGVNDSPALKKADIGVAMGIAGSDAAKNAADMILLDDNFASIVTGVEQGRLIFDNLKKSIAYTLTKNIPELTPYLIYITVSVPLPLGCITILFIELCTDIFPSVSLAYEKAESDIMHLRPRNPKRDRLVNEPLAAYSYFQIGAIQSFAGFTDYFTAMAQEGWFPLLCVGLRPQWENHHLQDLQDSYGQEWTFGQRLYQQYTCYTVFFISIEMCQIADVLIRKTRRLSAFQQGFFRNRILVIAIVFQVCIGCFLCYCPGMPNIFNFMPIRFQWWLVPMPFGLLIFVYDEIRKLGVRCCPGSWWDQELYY
T1 sequence (P18434 whole entry partner): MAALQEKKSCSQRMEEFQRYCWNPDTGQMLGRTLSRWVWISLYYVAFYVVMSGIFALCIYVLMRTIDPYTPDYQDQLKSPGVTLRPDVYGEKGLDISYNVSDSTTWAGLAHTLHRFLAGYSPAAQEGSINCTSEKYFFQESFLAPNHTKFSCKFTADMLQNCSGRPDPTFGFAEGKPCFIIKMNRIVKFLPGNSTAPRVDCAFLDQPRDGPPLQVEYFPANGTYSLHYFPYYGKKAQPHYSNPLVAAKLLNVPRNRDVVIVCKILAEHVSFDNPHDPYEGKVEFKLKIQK

| IC50 [nM] | SMILES |
| --- | --- |
| 670 | CNC1CCc2c1cn(S(=O)(=O)c1cc(Cl)ccc1Cl)c2-c1cc(Cl)ccc1Cl (stereo not shown) [Example 73, 1-(2,5-dichlorophenyl)-2-((2,5-dichlorophenyl)sulfonyl)-N-methyl-2,4,5,6-tetrahydrocyclopenta[c]pyrrol-4-amine] |
| 470 | CNC1CCc2c1cn(S(=O)(=O)c1cccc(F)c1)c2-c1ccc(C)cc1F (stereo not shown) [Example 47, 1-(2-fluoro-4-methylphenyl)-2-((3-fluorophenyl)sulfonyl)-N-methyl-2,4,5,6-tetrahydrocyclopenta[c]pyrrol-4-amine] |
| 6780 | CNC1CCc2c1cn(S(=O)(=O)c1ccc(C)nc1Cl)c2-c1ccccc1F (stereo not shown) [Example 99, 2-((2-chloro-6-methylpyridin-3-yl)sulfonyl)-1-(2-fluorophenyl)-N-methyl-2,4,5,6-tetrahydrocyclopenta[c]pyrrol-4-amine] |
| 1140 | CNC1CCc2c1cn(S(=O)(=O)c1cc(Cl)c(Cl)cc1Cl)c2-c1ccccc1 (stereo not shown) [Example 81, N-methyl-1-phenyl-2-((2,4,5-trichlorophenyl)sulfonyl)-2,4,5,6-tetrahydrocyclopenta[c]pyrrol-4-amine] |
| 9070 | CN(C)C1CCCc2c1cn(S(=O)(=O)c1cccc(C(F)(F)F)c1)c2-c1ccccc1F (stereo not shown) [Example 139, 1-(2-fluorophenyl)-N,N-dimethyl-2-((3-(trifluoromethyl)phenyl)sulfonyl)-4,5,6,7-tetrahydro-2H-isoindole-4-amine] |
| 7240 | CNC1CCc2c1cn(S(=O)(=O)c1cc(C)cnc1Cl)c2-c1ccccc1F (stereo not shown) [Example 100, 2-((2-chloro-5-methylpyridin-3-yl)sulfonyl)-1-(2-fluorophenyl)-N-methyl-2,4,5,6-tetrahydrocyclopenta[c]pyrrol-4-amine] |
| 2570 | CNC1CCc2c1cn(Cc1cccc(OC)c1)c2-c1ccccc1F (stereo not shown) [Example 111, 1-(2-fluorophenyl)-2-(3-methoxybenzyl)-N-methyl-2,4,5,6-tetrahydrocyclopenta[c]pyrrol-4-amine] |
| 1800 | CNC1CCc2c1cn(S(=O)(=O)c1cccc(Cl)c1)c2-c1ccc(C#N)cc1 (stereo not shown) [Example 13, 4-(2-((3-chlorophenyl)sulfonyl)-4-(methylamino)-2,4,5,6-tetrahydrocyclopenta[c]pyrrol-1-yl)benzonitrile] |
| 2200 | CNC1CCCCc2c1cn(S(=O)(=O)c1cccc(Cl)c1)c2-c1ccccc1F (stereo not shown) [Example 145, 2-((3-chlorophenyl)sulfonyl)-1-(2-fluorophenyl)-N-methyl-2,4,5,6,7,8-hexahydrocyclohepta[c]pyrrol-4-amine] |
| 7010 | CNC1CCc2c1cn(S(=O)(=O)c1cccc(Cl)c1)c2Cc1ccccc1 (stereo not shown) [Example 27, 1-benzyl-2-((3-chlorophenyl)sulfonyl)-N-methyl-2,4,5,6-tetrahydrocyclopenta[c]pyrrol-4-amine] |
| 770 | CNC1CCc2c1cn(S(=O)(=O)c1cccc(C)c1)c2-c1cc(Cl)ccc1Cl (stereo not shown) [Example 53, 1-(2,5-dichlorophenyl)-N-methyl-2-(m-tolylsulfonyl)-2,4,5,6-tetrahydrocyclopenta[c]pyrrol-4-amine] |
| 670 | CNC1CCc2c1cn(S(=O)(=O)c1cc(Cl)ccc1Cl)c2-c1ccc(F)cc1F (stereo not shown) [Example 71, 2-((2,5-dichlorophenyl)sulfonyl)-1-(2,4-difluorophenyl)-N-methyl-2,4,5,6-tetrahydrocyclopenta[c]pyrrol-4-amine] |
| 15000 | CN(C)C1CCCc2c1cn(S(=O)(=O)c1cccc(F)c1)c2-c1ccccc1F (stereo not shown) [Example 136, 1-(2-fluorophenyl)-2-((3-fluorophenyl)sulfonyl)-N,N-dimethyl-4,5,6,7-tetrahydro-2H-isoindole-4-amine] |
| 3270 | CNC1CCc2c1cn(S(=O)(=O)c1ccccc1OC)c2-c1ccccc1F (stereo not shown) [Example 46, 1-(2-fluorophenyl)-2-((2-methoxyphenyl)sulfonyl)-N-methyl-2,4,5,6-tetrahydrocyclopenta[c]pyrrol-4-amine] |
| 650 | CNC1CCc2c1cn(S(=O)(=O)c1cccc(F)c1)c2-c1cc(Cl)ccc1Cl (stereo not shown) [Example 51, 1-(2,5-dichlorophenyl)-2-((3-fluorophenyl)sulfonyl)-N-methyl-2,4,5,6-tetrahydrocyclopenta[c]pyrrol-4-amine] |
| 1440 | CNC1CCc2c1cn(S(=O)(=O)c1cccs1)c2-c1ccccc1F (stereo not shown) [Example 87, 1-(2-fluorophenyl)-N-methyl-2-(thiophen-2-ylsulfonyl)-2,4,5,6-tetrahydrocyclopenta[c]pyrrol-4-amine] |

| IC50 [nM] | SMILES |
| --- | --- |
| 1500 | CNC1CCCc2c1cn(S(=O)(=O)c1cccc(N(C)C)c1)c2-c1ccccc1F (stereo not shown) [Example 130, 2-((3-(dimethylamino)phenyl)sulfonyl)-1-(2-fluorophenyl)-N-methyl-4,5,6,7-tetrahydro-2H-isoindole-4-amine] |
| 2140 | CNC1CCc2c1cn(S(=O)(=O)c1c(Cl)cccc1Cl)c2-c1ccccc1F (stereo not shown) [Example 75, 2-((2,6-dichlorophenyl)sulfonyl)-1-(2-fluorophenyl)-N-methyl-2,4,5,6-tetrahydrocyclopenta[c]pyrrol-4-amine] |
| 4000 | CNC1CCCc2c1cn(S(=O)(=O)c1cc(Cl)ccc1F)c2-c1ccccc1F (stereo not shown) [Example 126, 2-((5-chloro-2-fluorophenyl)sulfonyl)-1-(2-fluorophenyl)-N-methyl-4,5,6,7-tetrahydro-2H-isoindole-4-amine] |
| 19700 | CNC1CCCc2c1cn(S(=O)(=O)c1cccnc1)c2-c1ccc(-c2ccccc2)cc1 (stereo not shown) [Example 134, 1-([1,1′-biphenyl]-4-yl)-N-methyl-2-(pyridin-3-ylsulfonyl)-4,5,6,7-tetrahydro-2H-isoindole-4-amine] |
| 500 | CNC1CCc2c1cn(S(=O)(=O)c1ccc(F)cc1Cl)c2-c1ccccc1F (stereo not shown) [Example 66, 2-((2-chloro-4-fluorophenyl)sulfonyl)-1-(2-fluorophenyl)-N-methyl-2,4,5,6-tetrahydrocyclopenta[c]pyrrol-4-amine] |
| 770 | CNC1CCc2c1cn(S(=O)(=O)c1ccc(F)cc1)c2-c1cc(Cl)ccc1Cl (stereo not shown) [Example 61, 1-(2,5-dichlorophenyl)-2-((4-fluorophenyl)sulfonyl)-N-methyl-2,4,5,6-tetrahydrocyclopenta[c]pyrrol-4-amine] |
| 1500 | CNC1CCCc2c1cn(S(=O)(=O)c1cccc(OC)c1)c2-c1ccccc1F (stereo not shown) [Example 122, 1-(2-fluorophenyl)-2-((3-methoxyphenyl)sulfonyl)-N-methyl-4,5,6,7-tetrahydro-2H-isoindole-4-amine] |
| 2440 | Cc1oc(=O)oc1CN(C)C1CCc2c1cn(S(=O)(=O)c1cccc(F)c1)c2-c1ccc(F)cc1F (stereo not shown) [Example 117, 4-(((1-(2,4-difluorophenyl)-2-((3-fluorophenyl)sulfonyl)-2,4,5,6-tetrahydrocyclopenta[c]pyrrol-4-yl)(methyl)amino)methyl)-5-methyl-1,3-dioxol-2-one] |
| 10600 | CN(C)C1CCCc2c1cn(S(=O)(=O)c1cccc(OC(F)(F)F)c1)c2-c1ccccc1F (stereo not shown) [Example 141, 1-(2-fluorophenyl)-N,N-dimethyl-2-((3-(trifluoromethoxy)phenyl)sulfonyl)-4,5,6,7-tetrahydro-2H-isoindole-4-amine] |
| 40000 | CNC1CCc2c1cn(S(=O)(=O)c1cccc(Cl)c1)c2-c1ccccc1N1CCOCC1 (stereo not shown) [Example 7] |
| 590 | CNC1CCc2c1cn(S(=O)(=O)c1cccc(OC)c1)c2-c1cc(Cl)ccc1Cl (stereo not shown) [Example 55, 1-(2,5-dichlorophenyl)-2-((3-methoxyphenyl)sulfonyl)-N-methyl-2,4,5,6-tetrahydrocyclopenta[c]pyrrol-4-amine] |
| 410 | CNC1CCc2c1cn(S(=O)(=O)c1cccc(OC)c1)c2-c1ccc(C)cc1F (stereo not shown) [Example 54, 1-(2-fluoro-4-methylphenyl)-2-((3-methoxyphenyl)sulfonyl)-N-methyl-2,4,5,6-tetrahydrocyclopenta[c]pyrrol-4-amine] |
| 2820 | CNC1CCc2c1cn(S(=O)(=O)c1cnc3onc(C)c3c1)c2-c1ccccc1F (stereo not shown) [Example 97, 1-(2-fluorophenyl)-N-methyl-2-((3-methylisoxazolo[5,4-b]pyridin-5-yl)sulfonyl-)2,4,5,6-tetrahydrocyclopenta[c]pyrrol-4-amine] |
| 6000 | Cc1cccc(S(=O)(=O)n2cc3c(c2-c2ccccc2F)CCCC3N(C)C)c1 (stereo not shown) [Example 137, 1-(2-fluorophenyl)-N,N-dimethyl-2-(m-tolylsulfonyl)-4,5,6,7-tetrahydro-2H-isoindole-4-amine] |
| 1620 | CNC1CCc2c1cn(S(=O)(=O)c1ccc(C(F)(F)F)cc1Cl)c2-c1ccccc1F (stereo not shown) [Example 69, 2-((2-chloro-4-(trifluoromethyl)phenyl)sulfonyl)-1-(2-fluorophenyl)-N-methyl-2,4,5,6-tetrahydrocyclopenta[c]pyrrol-4-amine] |
